Reference: US20160082015A1, “METHODS, COMPOSITIONS AND KITS FOR PROMOTING MOTOR NEURON SURVIVAL AND TREATING AND DIAGNOSING NEURODEGENERATIVE DISORDERS” (PRESIDENT AND FELLOWS OF HARVARD COLLEGE, priority 2013, published 2016)

Experiments:
Type in all cases: cell-based, mouse
ubiquitin = assay: MN ubiquitin levels by single cell imaging; conditions: days 21 and 28, SOD1^G93A/HB9::GFP MNs
From the text: Insets show higher magnification of cells contained within white circles. Data are presented as mean±SEM. * p<0.05 (Student's t test, two-tailed). Scale bar represents 50 μm.
It has been shown that SOD1^G93A accumulates in ubiquitinated aggregates after about 2 weeks of culture (Di Giorgio et al., 2007). Ubiquitinated proteins are found to be elevated in MNs of ALS patients and SOD1^G93A mice during neural degeneration (Watanabe et al., 2001; Wang et al., 2003). The inventors also observed the appearance of aggregates in their cultures at these later times (FIG. 5C). This led us to examine when differences in SOD1^G93A protein levels began to appear. […] Thus, the ability of kenpaullone to reduce the later periods of SOD1^G93A/HB9::GFP death coincides in time with the decreased levels of SOD1^G93A and ubiquitin.

SOD1^G93A/HB9::GFP MNs = assay: Image analyses of synapses and neurite arborization; conditions: 5 μM
From the text: (§1) For synapse analysis, the inventors quantified imaging data using the PerkinElmer Acapella software spot detection algorithm. Synapses were defined as the overlap of presynaptic and postsynaptic spots on MNs. On each GFP^+ cell, we first drew a circle around the cell body with a diameter of approximately two cell body diameters, similar to that described by Ullian et al. (Schwann cells and astrocytes induce synapse formation by spinal motor neurons in culture. Mol Cell Neurosci., 2004, 25: 241-251) as the area for spot detection. Within each circle, presynaptic sites were detected using a primary antibody against synapsin and a secondary antibody conjugated with Alexa-632. Candidate spots that met an average intensity threshold were accepted as legitimate presynaptic punctac. Then we expanded the radius of each presynaptic puncta by 1 pixel, since the pre- and post-synaptic spots often were slightly offset, especially at higher magnifications, and measured the intensity in the postsynaptic channel, using a PSD95 primary antibody and a secondary antibody conjugated with Alexa-546. Postsynaptic punctae that exceeded the threshold mean intensity threshold were accepted, permitting us to define “colocalized” spots, or synapses.
(§2) The neurite tracing method in Acapella software is based on methods developed at CSIRO at perkinelmer.com/pages/020/cellularimaging/assaysneuriteoutgrowth.xhtm. The cell bodies of MNs were located by expression of HB9:GFP, and the neurites were also detected by GFP fluorescence. The algorithm measured the lengths and fluorescence intensities of each neurite and the branching level (primary, secondary, etc). The total lengths of neurites and the numbers, lengths and fluorescent intensities of primary and secondary branches were measured based on selected threshold parameters.

HB9::GFP MNs = assay: as above; conditions: 5 μM
From the text: as §1, §2

[1] = system: site-specific phosphorylation of kinases in MN cultures; assay: Phospho-Kinase Antibody Array
Description: Freshly dissociated HB9::GFP EBs were plated at a density of 3 million GFP+ cells/10 cm dish and trophic factor withdrawal/compound addition was performed on day 4. Protein lysates were generated 6 and 24 h after treatment using RIPA buffer supplemented with protease and phosphatase inhibitors (Pierce Biotechnology). Equal amounts of total protein from treatment groups were added to Phospho-Kinase Antibody Arrays (R&D Systems, #ARY003). Arrays were prepared following the manufacturer's instructions and developed with SuperSignal West Pico Chemiluminescent Substrate (Pierce Biotechnology). Background signal was subtracted and duplicate spot pixel densities were averaged using QuantityOne software (BioRad).

[2] = trophic factors removed day 4, analyzed day 21

Structure (SMILES): O=C1Cc2c([nH]c3ccc(Br)cc23)-c2ccccc2N1 [Kenpaullone]
- MN levels of ubiquitin (ubiquitin): reduced
- synapses per MN (SOD1^G93A/HB9::GFP MNs; no trophic factors, day 21): supported their ability to maintain morphological synapses
- neurite growth of MNs (SOD1^G93A/HB9::GFP MNs; [2]): allowing neurite growth beyond that seen in cells kept in trophic factors
- number of synapses per MN (HB9::GFP MNs; no trophic factors, day 21): dramatic increase
- neuritic network of MNs (HB9::GFP MNs; [2]): maintain the neuritic network of these cells at levels seen in trophic factor supplemented cultures
- relative phosphorylation of GSK-3 [1]: significant reduction
- relative phosphorylation of c-Jun [1]: reduction
- relative phosphorylation of cJun N-terminal kinase (JNK) [1]: reduction
